Experimental data: PMC12503909, “C1′‐Branched Acyclic Nucleoside Phosphonates as Inhibitors of Plasmodium Falciparum 6‐Oxopurine Phosphoribosyltransferase” (Chemmedchem, 2025)
Where a name gives a salt, the structure may show the parent alone. Values belong to the compound of their own block, whether it stands above or below them.

Legend:
human HGPRT = target: T1, human HGPRT (Homo sapiens, UniProt P00492); test: Determination of Ki values, human HGPRT; assay type: biochemical; settings: 0.1 M Tris-HCl, 10 mM MgCl2, pH 7.4; guanine 60 μM, variable PRib-PP; mean ± SD of three independent experiments
T1 construct: made in house
T1 sequence (P00492 1-218): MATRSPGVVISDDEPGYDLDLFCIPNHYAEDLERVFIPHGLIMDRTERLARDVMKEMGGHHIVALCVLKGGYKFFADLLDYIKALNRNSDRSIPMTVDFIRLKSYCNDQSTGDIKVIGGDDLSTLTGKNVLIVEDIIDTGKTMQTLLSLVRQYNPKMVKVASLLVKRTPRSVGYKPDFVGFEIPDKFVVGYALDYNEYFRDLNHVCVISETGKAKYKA
Protocol: (§1) The human and Pf enzymes were purified as described previously.^[ [7] ^, [26] ^] All assays were performed in 0.1 M Tris‐HCl, 10 mM MgCl2, pH 7.4. […] The K i was calculated using the equation, v o = Vmax.[S]o/[S]o + K m(app) and K m(app) = K m [1 + [I]/K i ].

PfHGXPRT = target: T2, PfHGXPRT (Plasmodium falciparum, UniProt P20035); test: Determination of Ki values, PfHGXPRT; assay type: biochemical; settings: 0.1 M Tris-HCl, 10 mM MgCl2, pH 7.4; guanine 60 μM, variable PRib-PP; mean ± SD of three independent experiments
T2 construct: made in house
T2 sequence (P20035 1-231): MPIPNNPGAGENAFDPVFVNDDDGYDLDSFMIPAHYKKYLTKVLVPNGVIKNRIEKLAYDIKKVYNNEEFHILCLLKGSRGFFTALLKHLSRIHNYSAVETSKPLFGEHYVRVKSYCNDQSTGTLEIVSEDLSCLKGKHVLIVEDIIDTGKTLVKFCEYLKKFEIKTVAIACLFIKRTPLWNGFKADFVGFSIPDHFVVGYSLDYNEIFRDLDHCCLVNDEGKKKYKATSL
Protocol: as §1

NHDF = test: Cytotoxicity of the prodrug in human cells (CellTiter-Glo 2.0), NHDF; assay type: cell-based; settings: 10 µM, versus untreated control; mean ± SD
Protocol: (§2) Compound cytotoxicity was evaluated in nontumor human dermal fibroblasts (NHDF), CCRF‐CEM, HL‐60, HeLa, and HepG2 cells. All cell lines were obtained from ATCC (Manassas, VA, USA). The cytotoxicity was assayed using CellTiter‐Glo 2.0 detection reagent (Promega, Madison, USA) according to the manufacturer's protocol. The concentration of prodrug used in this assay was 10 μM. This concentration was chosen as it would more accurately reflect the expected concentration in an in vitro assessment.

P. falciparum D6 = test: In vitro antimalarial activity, 3H-hypoxanthine growth inhibition assay, D6 line; assay type: cell-based, Plasmodium falciparum; settings: Plasmodium falciparum, D6, Erythrocyte, 96 h, Pf infected erythrocytes, D6 strain sensitive to chloroquine, mean ± SD of three independent experiments
Protocol: (§3) The IC50 values were determined as previously described.^[ [32] ^] P. falciparum D6 (Sierra‐Leone) laboratory line, sensitive to most antimalarial drugs, and W2 (Indochina) line, resistant to chloroquine and pyrimethamine, were maintained as previously described^[ [33] ^] in medium consisted of 10.4 g L^−1 RPMI‐1640‐LPLF powder (Gibco BRL), 5.97 g L^−1 HEPES buffer (MP Biomedicals, USA), 2.0 g L^−1 d‐glucose (BDH chemicals, Australia), 0.05 g L^−1 hypoxanthine (Sigma, USA) and 40 mg L^−1 gentamycin (Pfizer, Australia), supplemented with 0.21% NaHCO3 and 10% human plasma prior to use. Red blood cells O (Rh+) type were obtained from the Australian Red Cross Blood Service and added to 4% haematocrit. Cultures were routinely synchronized using D‐sorbitol.^[ [34] ^] To evaluate the antimalarial activity of the ANPs, the ^3H‐hypoxanthine growth inhibition assay was utilized, where the uptake of ^3H‐hypoxanthine by malaria parasites is used as a surrogate marker for parasite growth. For these assays, stock solutions of the tested compounds were made to concentrations of 20–40 mM in DMSO or water and subsequently diluted in hypoxanthine‐free complete media prior to assay. The assays (in 96‐well plate format) were initiated when most parasites (> 90%) were at the early trophozoite (ring) stage. Parasite cultures (100 μL per well) at 0.5% initial parasitemia and 2% hematocrit in hypoxanthine‐free RPMI1640‐LPLF medium were exposed to ten twofold serial dilutions of the compounds and chloroquine (reference drug) for 96 h, with ^3H‐hypoxanthine (0.2 μCi well^−1) added ≈48 h after the beginning of the experiment.
(§4) The ^3H‐hypoxanthine incorporation data were analyzed, and sigmoidal growth inhibition curves were produced by nonlinear regression analysis of the ^3H‐hypoxanthine incorporation data versus log‐transformed concentrations of the compounds using Graphpad Prism V5.0 software (GraphPad Software Inc. USA). […] The IC50 values were based on three independent experiments, with mean ± SD calculated.

P. falciparum W2 = test: In vitro antimalarial activity, 3H-hypoxanthine growth inhibition assay, W2 line; assay type: cell-based, Plasmodium falciparum; settings: Plasmodium falciparum, W2, Erythrocyte, 96 h, Pf infected erythrocytes, W2 strain resistant to chloroquine, mean ± SD of three independent experiments
Protocol: as §3, §4

HL-60 = test: Cytotoxicity of the prodrug in human cells (CellTiter-Glo 2.0), HL-60; assay type: cell-based; settings: 10 µM, versus untreated control; mean ± SD
Protocol: as §2

HeLa = test: Cytotoxicity of the prodrug in human cells (CellTiter-Glo 2.0), HeLa; assay type: cell-based; settings: 10 µM, versus untreated control; mean ± SD
Protocol: as §2

HepG2 = test: Cytotoxicity of the prodrug in human cells (CellTiter-Glo 2.0), HepG2; assay type: cell-based; settings: 10 µM, versus untreated control; mean ± SD
Protocol: as §2

CCRF-CEM = test: Cytotoxicity of the prodrug in human cells (CellTiter-Glo 2.0), CCRF-CEM; assay type: cell-based; settings: 10 µM, versus untreated control; mean ± SD
Protocol: as §2

Structure (SMILES): CCOC(=O)[C@H](Cc1ccccc1)NP(=O)(CCOCC(OCCO)n1cnc2c(=O)[nH]cnc21)N[C@@H](Cc1ccccc1)C(=O)OCC (some centres unmarked) [21c, Bis‐(L‐phenylalaninate ethyl ester) prodrug of (2‐(2‐(2‐hydroxyethoxy)‐2‐(hypoxanthin‐9‐yl)ethoxy)ethyl) phosphonic acid]
Viability NHDF (NHDF): 102 ± 6 % control | IC50 (P. falciparum D6): 41 ± 5 µM | IC50 (P. falciparum W2): 14 ± 2 µM | Viability HL-60 (HL-60): 104 ± 2 % control | Viability HeLa (HeLa): 97 ± 2 % control | Viability HepG2 (HepG2): 97 ± 2 % control | Viability CCRF-CEM (CCRF-CEM): 100 ± 2 % control

Structure (SMILES): O=c1[nH]cnc2c1ncn2C(COCCP(=O)(O)O)OCCOCP(=O)(O)O (centres unmarked) [18a, Sodium salt of (2‐(2‐(hypoxanthin‐9‐yl)‐2‐(2‐(phosphonatomethoxy)ethoxy)ethoxy)ethyl)phosphonic acid]
Ki (human HGPRT): > 60 µM | Ki (PfHGXPRT): 5 ± 1 µM

Structure (SMILES): CCOC(=O)[C@H](Cc1ccccc1)NP(=O)(CCOCC(OCCOCP(=O)(N[C@@H](Cc1ccccc1)C(=O)OCC)N[C@@H](Cc1ccccc1)C(=O)OCC)n1cnc2c(=O)[nH]c(N)nc21)N[C@@H](Cc1ccccc1)C(=O)OCC (mixture of isomers) [19b, Tetra‐(L‐phenylalaninate ethyl ester) prodrug of (2‐(2‐(guanin‐9‐yl)‐2‐(2‐(phosphonatomethoxy)ethoxy)ethoxy)ethyl)phosphonic acid]
IC50 (P. falciparum D6): 4.3 ± 0.7 µM | IC50 (P. falciparum W2): 8.8 ± 2.6 µM

Structure (SMILES): CCOC(=O)[C@H](Cc1ccccc1)NP(=O)(COCCC(OCCCO)n1cnc2c(=O)[nH]cnc21)N[C@@H](Cc1ccccc1)C(=O)OCC (some centres unmarked) [21e, Bis‐(L‐phenylalaninate ethyl ester) prodrug of ((3‐(3‐hydroxypropoxy)‐3‐(hypoxanthin‐9‐yl)propoxy)methyl) phosphonic acid]
Viability NHDF (NHDF): 110 ± 7 % control | IC50 (P. falciparum D6): 14 ± 2 µM | IC50 (P. falciparum W2): 41 ± 5 µM | Viability HL-60 (HL-60): 110 ± 1 % control | Viability HeLa (HeLa): 105 ± 1 % control | Viability HepG2 (HepG2): 106 ± 3 % control | Viability CCRF-CEM (CCRF-CEM): 105 ± 2 % control

Structure (SMILES): O=c1[nH]cnc2c1ncn2C(CCOCP(=O)(O)O)OCCCO (centres unmarked) [20g, Sodium salt of ((3‐(3‐hydroxypropoxy)‐3‐(hypoxanthin‐9‐yl)propoxy)methyl)phosphonic acid]
Ki (human HGPRT): > 60 µM | Ki (PfHGXPRT): > 60 µM

Structure (SMILES): CCOC(=O)[C@H](Cc1ccccc1)NP(=O)(COCC(OCCO)n1cnc2c(=O)[nH]cnc21)N[C@@H](Cc1ccccc1)C(=O)OCC (some centres unmarked) [21a, Bis‐(L‐phenylalaninate ethyl ester) prodrug of ((2‐(2‐hydroxyethoxy)‐2‐(hypoxanthin‐9‐yl)ethoxy)methyl)phosphonic acid]
Viability NHDF (NHDF): 104 ± 8 % control | IC50 (P. falciparum D6): 34 ± 6 µM | IC50 (P. falciparum W2): 71 ± 1 µM | Viability HL-60 (HL-60): 103 ± 0 % control | Viability HeLa (HeLa): 97 ± 2 % control | Viability HepG2 (HepG2): 98 ± 3 % control | Viability CCRF-CEM (CCRF-CEM): 101 ± 2 % control

Structure (SMILES): CCOC(=O)[C@H](Cc1ccccc1)NP(=O)(COCC(OCCO)n1cnc2c(=O)[nH]c(N)nc21)N[C@@H](Cc1ccccc1)C(=O)OCC (mixture of isomers) [21b, Bis‐(L‐phenylalaninate ethyl ester) prodrug of ((2‐(guanin‐9‐yl)‐2‐(2‐hydroxyethoxy)ethoxy)methyl)phosphonic acid]
Viability NHDF (NHDF): 94 ± 8 % control | IC50 (P. falciparum D6): 84 ± 10 µM | IC50 (P. falciparum W2): 79 ± 8 µM | Viability HL-60 (HL-60): 100 ± 2 % control | Viability HeLa (HeLa): 91 ± 2 % control | Viability HepG2 (HepG2): 93 ± 4 % control | Viability CCRF-CEM (CCRF-CEM): 97 ± 1 % control

Structure (SMILES): O=c1[nH]c(Cl)nc2c1ncn2C(COCCP(=O)(O)O)OCCO (centres unmarked) [20e, Sodium salt of (2‐(2‐(2‐chlorohypoxanthin‐9‐yl)‐2‐(2‐hydroxyethoxy)ethoxy)ethyl)phosphonic acid]
Ki (human HGPRT): > 60 µM | Ki (PfHGXPRT): 50 ± 10 µM

Further lines, results first:

Ki (human HGPRT): 3.7 ± 0.9 µM | Ki (PfHGXPRT): 3 ± 0.5 µM
Structure (SMILES): CCOC(COCCP(=O)(O)O)n1cnc2c(=O)[nH]c(N)nc21 (centres unmarked) [compound 25, Sodium salt of (2‐(2‐(guanin‐9‐yl)‐2‐ethoxyethoxy)ethyl)phosphonic acid]

Ki (human HGPRT): > 60 µM | Ki (PfHGXPRT): > 60 µM
Structure (SMILES): O=c1[nH]cnc2c1cnn2C(COCCP(=O)(O)O)OCCO (centres unmarked) [20f, Sodium salt of (2‐(2‐(2‐hydroxyethoxy)‐2‐(4‐oxo‐4,5‐dihydro‐1H‐pyrazolo[3,4‐d]pyrimidin‐1‐yl)ethoxy)ethyl)phosphonic acid]

Ki (human HGPRT): 0.7 ± 0.4 µM | Ki (PfHGXPRT): 1 ± 0.2 µM
Structure (SMILES): Nc1nc2c(ncn2C(COCCP(=O)(O)O)OCCOCP(=O)(O)O)c(=O)[nH]1 (centres unmarked) [18b, Sodium salt of (2‐(2‐(guanin‐9‐yl)‐2‐(2‐(phosphonatomethoxy)ethoxy)ethoxy)ethyl)phosphonic acid]

Ki (human HGPRT): > 60 µM | Ki (PfHGXPRT): > 60 µM
Structure (SMILES): O=c1[nH]cnc2c1cnn2C(CCOCP(=O)(O)O)OCCCO (centres unmarked) [20i, Sodium salt of ((3‐(3‐hydroxypropoxy)‐3‐(4‐oxo‐4,5‐dihydro‐1H‐pyrazolo[3,4‐d]pyrimidin‐1‐yl)propoxy)methyl)phosphonic acid]

Ki (human HGPRT): > 20 µM | Ki (PfHGXPRT): 10 ± 5 µM
Structure (SMILES): O=c1[nH]cnc2c1ncn2C(COCCP(=O)(O)O)OCCO (centres unmarked) [20c, Sodium salt of (2‐(2‐(2‐hydroxyethoxy)‐2‐(hypoxanthin‐9‐yl)ethoxy)ethyl)phosphonic acid]

Ki (human HGPRT): 2.5 ± 0.4 µM | Ki (PfHGXPRT): 0.4 ± 0.1 µM
Structure (SMILES): Nc1nc2c(ncn2C(COCCP(=O)(O)O)OCCO)c(=O)[nH]1 (centres unmarked) [20d, Sodium salt of (2‐(2‐(2‐hydroxyethoxy)‐2‐(guanin‐9‐yl)ethoxy)ethyl)phosphonic acid]

Ki (human HGPRT): 160 µM
Structure (SMILES): O=c1[nH]cnc2c1ncn2C(COCP(=O)(O)O)OCCO (centres unmarked) [20a, Sodium salt of ((2‐(2‐hydroxyethoxy)‐2‐(hypoxanthin‐9‐yl)ethoxy)methyl) phosphonic acid]

Ki (human HGPRT): 10 ± 3 µM | Ki (PfHGXPRT): > 60 µM
Structure (SMILES): Nc1nc2c(ncn2C(CCOCP(=O)(O)O)OCCCO)c(=O)[nH]1 (centres unmarked) [20h, Sodium salt of ((3‐(guanin‐9‐yl)‐3‐(3‐hydroxypropoxy)propoxy)methyl)phosphonic acid]

Ki (human HGPRT): 30 ± 5 µM | Ki (PfHGXPRT): 5 ± 1 µM
Structure (SMILES): Nc1nc2c(ncn2C(COCP(=O)(O)O)OCCO)c(=O)[nH]1 (centres unmarked) [20b, Sodium salt of ((2‐(guanin‐9‐yl)‐2‐(2‐hydroxyethoxy)ethoxy)methyl)phosphonic acid]
